The values that follow come from patent US20240182406A1, “COMPOUNDS AS SOLUBLE EPOXIDE HYDROLASE INHIBITORS” (UNIVERSITAT DE BARCELONA, priority 2021, published 2024).

Series [1] addresses human sEH (Homo sapiens (Human), UniProt P34913). Put plainly: In vitro determination of sEH inhibition activity (fluorescent assay, CMNPC substrate). The conditions noted are these: purified recombinant human sEH, CMNPC 5 μM, 30° C., mean of triplicate. The series is classed as biochemical. The procedure:
Cyano(6-methoxynaphthalen-2-yl)methyl 2-(3-phenyloxiran-2-yl)methylcarbonate (CMNPC); cf. Morisseau, C.; Hammock, B. D. Measurement of soluble epoxide hydrolase (sEH) activity. Curr. Protoc. Toxicol.
The fluorescent assay was used with purified recombinant human or mouse sEH proteins. The enzymes were incubated at 30° C. with the inhibitors ([I]final=0.4-100,000 nM) for 5 min in 100 mM sodium phosphate buffer (200 μL, pH 7.4) containing 0.1 mg/mL of BSA and 1% of DMSO. The substrate (CMNPC) was then added ([S]final=5 μM). […] Results were obtained by regression analysis from a linear region of the curve.

Series [2] can be described thus: In vitro determination of microsomal stability. Conditions: human microsomes, 37° C., samples at 0-60 min. The series is classed as in vitro ADME. As to the method: The human recombinant microsomes employed were purchased from Tebu-Xenotech. […] Samples (75 μL) were taken from each well at 0, 10, 20, 40 and 60 min and transferred to a plate containing 4° C. 75 μL acetonitrile and 30 μL of 0.5% formic acid in water were added for improving the chromatographic conditions. The plate was centrifuged (46000 g, 30 min) and supernatants were taken and analyzed in a UPLC-MS/MS (Xevo-TQD, Waters) by employing a BEH C18 column and an isocratic gradient of 0.1% formic acid in water:0.1% formic acid acetonitrile (60:40). The metabolic stability of the compounds was calculated from the logarithm of the remaining compounds at each of the time points studied.

Series [3] concerns CD1 mice. The experiment in a line: Seizure assay (pentylenetetrazole, PTZ test). The series is classed as in vivo, mouse. Conditions: 5 mg/kg by gavage 1 h prior to PTZ 85 mg/Kg s.c., monitored 30 min. As to the method: Test compounds were dissolved in 20% hydroxypropyl-beta-cyclodextrin and concentration was calculated according to the animal weigh to reach the precise dose. Animals were housed in standard care facilities with a 12 hours light-dark cycle with free access to water and food.
To investigate the ability of compounds to cross the blood-brain barrier (BBB), a standard acute test involving the administration of pro-convulsant pentylenetetrazole (PTZ) was employed [Inceoglu et al, PLoS ONE, 2013, 8(12), e80922; WO 2015/148954 A1]. In the test, PTZ was administered at 85 mg/Kg by subcutaneous route, time to onset of first clonic seizure, average of clonic seizures, tonic seizure latency and lethality were monitored for 30 min. Vehicles or compounds were administered by gavage at 5 mg/kg 1 h prior to pro-convulsant.

What is called IC50 is the concentration needed to halve the response being measured. Usually melting point stands for the temperature, or range, at which the solid turns liquid.

Structures are written as SMILES. Marks after values point to notes of the source that are not given here.

human sEH, sequence (P34913 whole entry): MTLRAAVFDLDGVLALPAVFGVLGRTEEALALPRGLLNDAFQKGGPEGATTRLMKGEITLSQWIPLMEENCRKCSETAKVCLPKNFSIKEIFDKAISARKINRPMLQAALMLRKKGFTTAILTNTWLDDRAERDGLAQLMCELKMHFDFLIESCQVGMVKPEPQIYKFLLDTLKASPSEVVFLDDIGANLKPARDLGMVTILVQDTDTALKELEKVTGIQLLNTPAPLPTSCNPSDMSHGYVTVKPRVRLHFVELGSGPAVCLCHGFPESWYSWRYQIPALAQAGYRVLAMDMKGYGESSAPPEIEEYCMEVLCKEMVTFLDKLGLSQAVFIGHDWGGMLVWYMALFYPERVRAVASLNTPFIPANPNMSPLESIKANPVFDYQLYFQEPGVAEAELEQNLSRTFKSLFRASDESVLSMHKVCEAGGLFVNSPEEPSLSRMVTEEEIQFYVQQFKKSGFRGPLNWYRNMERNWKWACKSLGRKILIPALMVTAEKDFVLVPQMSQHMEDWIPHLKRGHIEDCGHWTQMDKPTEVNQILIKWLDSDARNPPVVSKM

`O=C(NC12CC3CC(F)(CC(C1)c1ccccc13)C2)N[C@H]1CC[C@H](Oc2ccc(C(=O)O)cc2)CC1` [Example 1, 4-[((1r,4r)-4-(3-(9-fluoro-5,6,8,9,10,11-hexahydro-7H-5,9:7,11-dimethanobenzo[9]annulen-7-yl)ureido)cyclohexyl)oxy]benzoic acid]: the IC50 in series [1] is 0.5 nM. For the same compound, in series [2], the “Microsomal stability (% remanent)” value is 77%.

Take `COc1cc2c(cc1OC)C1CC3(F)CC2CC(NC(=O)NC2CCN(C(=O)C4CCOCC4)CC2)(C1)C3` [Example 5, 1-(9-fluoro-2,3-dimethoxy-5,6,8,9,10,11-hexahydro-7H-5,9:7,11-dimethanobenzo[9]annulen-7-yl)-3-(1-(tetrahydro-2H-pyran-4-carbonyl)piperidin-4-yl)urea]: the IC50 in series [1] is 0.6 nM. The “Microsomal stability (% remanent)” value in series [2] was 100%.

As to `COc1cc2c(cc1OC)C1CC3(Cl)CC2CC(NC(=O)NC2CCN(C(=O)C4CCOCC4)CC2)(C1)C3` [Example 6, 1-(9-chloro-2,3-dimethoxy-5,6,8,9,10,11-hexahydro-7H-5,9:7,11-dimethanobenzo[9]annulen-7-yl)-3-(1-(tetrahydro-2H-pyran-4-carbonyl)piperidin-4-yl)urea], the melting point was in the range of 147 to 150 °C. For the same compound, the IC50 in series [1] is 0.4 nM. Moreover, the “Microsomal stability (% remanent)” value in series [2] stood at 42%.

For the compound `O=C(NC1CCN(c2ccc(C(=O)O)cc2)CC1)NC12CC3CC(F)(CC(C1)c1ccccc13)C2` [Example 13, 4-(4-(3-(9-fluoro-5,6,8,9,10,11-hexahydro-7H-5,9:7,11-dimethanobenzo[9]annulen-7-yl)ureido)piperidin-1-yl)benzoic acid], the melting point is 267 to 268 °C. In addition, in series [1], the IC50 turned out to be 0.5 nM. In addition, in series [2], the “Microsomal stability (% remanent)” value was found to be 100%.

Compound `O=C(NC1CCN(c2ccc(C(=O)O)cc2)CC1)NC12CC3CC(Cl)(CC(C1)c1ccccc13)C2` [Example 14, 4-(4-(3-(9-chloro-5,6,8,9,10,11-hexahydro-7H-5,9:7,11-dimethanobenzo[9]annulen-7-yl)ureido)piperidin-1-yl)benzoic acid] yielded a melting point of 226 to 227 °C. Moreover, in series [1], the IC50 is 0.4 nM. In addition, the “Microsomal stability (% remanent)” value in series [2] was 99%.

The compound `COC(=O)c1ccc(C(=O)N2CCC(NC(=O)NC34CC5CC(Cl)(CC(C3)c3ccccc35)C4)CC2)cc1` [Example 15, methyl 4-(4-(3-(9-chloro-5,6,8,9,10,11-hexahydro-7H-5,9:7,11-dimethanobenzo[9]annulen-7-yl)ureido)piperidine-1-carbonyl)benzoate] displayed a melting point of 128 to 129 °C.

For `O=C(NC1CCN(C(=O)c2ccc(C(=O)O)cc2)CC1)NC12CC3CC(Cl)(CC(C1)c1ccccc13)C2` [Example 16, 4-(4-(3-(9-chloro-5,6,8,9,10,11-hexahydro-7H-5,9:7,11-dimethanobenzo[9]annulen-7-yl)ureido)piperidine-1-carbonyl)benzoic acid], the melting point is 200 °C (dec.). Moreover, the IC50 in series [1] was determined as 0.4 nM. In addition, in series [2], the “Microsomal stability (% remanent)” value amounted to 88%.

In the case of `CC(=O)N1CCC(NC(=O)NC23CC4CC(C)(CC(C2)c2ccccc24)C3)CC1` [Example C1, 1-(1-acetylpiperidin-4-yl)-3-(9-methyl-5,6,8,9,10,11-hexahydro-7H-5,9:7,11-dimethanobenzo[9]annulen-7-yl)urea], in series [2], the “Microsomal stability (% remanent)” value is recorded as 1%.

As for `CC12CC3CC(NC(=O)NC4C[C@H]5CC[C@@H](C4)N5Cc4ccccc4)(CC(C1)c1ccccc13)C2` (stereo partly drawn) [Example C2, 1-((1R,3s,5S)-8-benzyl-8-azabicyclo[3.2.1]octan-3-yl)-3-(9-methyl-5,6,8,9,10,11-hexahydro-7H-5,9:7,11-dimethanobenzo[9]annulen-7-yl)urea], in series [1], the IC50 was determined as 4.7 nM. Also, in series [2], the “Microsomal stability (% remanent)” value was 0.1%.

For `CC12CC3CC(NC(=O)Nc4ccc(F)c(F)c4F)(CC(C1)c1ccccc13)C2` [Example C4, 1-(9-methyl-6,7,8,9,10,11-hexahydro-5H-5,9:7,11-dimethanobenzo[9]annulen-7-yl)-3-(2,3,4-trifluorophenyl)urea], the IC50 in series [1] is 1.1 nM. The “Microsomal stability (% remanent)” value in series [2] is 7%.

With `CC12CC3CC(NC(=O)NC4CCN(Cc5ccccc5)CC4)(CC(C1)c1ccccc13)C2` [Example C5, 1-(1-benzylpiperidin-4-yl)-3-(9-methyl-5,6,8,9,10,11-hexahydro-7H-5,9:7,11-dimethanobenzo[9]annulen-7-yl)urea], in series [1], the IC50 came out at 1.5 nM. The “Microsomal stability (% remanent)” value in series [2] amounted to 0.1%.

In the case of `CC(=O)N1CCC(NC(=O)NC23CC4CC(C)(CC(C2)c2cc(F)ccc24)C3)CC1` (centres unmarked) [Example C8, 1-(1-acetylpiperidin-4-yl)-3-(2-fluoro-9-methyl-5,6,8,9,10,11-hexahydro-7H-5,9:7,11-dimethanobenzo[9]annulen-7-yl)urea], the IC50 in series [1] was 0.9 nM. Also, the “Microsomal stability (% remanent)” value in series [2] stood at 22%.

Consider `CC(=O)N1CCC(NC(=O)NC23CC4CC(C)(CC(C2)c2c(F)cccc24)C3)CC1` (centres unmarked) [Example C9, 1-(1-acetylpiperidin-4-yl)-3-(1-fluoro-9-methyl-5,6,8,9,10,11-hexahydro-7H-5,9:7,11-dimethanobenzo[9]annulen-7-yl)urea], for which, in series [1], the IC50 was 0.9 nM. Moreover, the “Microsomal stability (% remanent)” value in series [2] came out at 16%.

As to `COc1ccc2c(c1)C1CC3(C)CC2CC(NC(=O)NC2CCN(C(C)=O)CC2)(C1)C3` (centres unmarked) [Example C10, 1-(1-acetylpiperidin-4-yl)-3-(2-methoxy-9-methyl-5,6,8,9,10,11-hexahydro-7H-5,9:7,11-dimethanobenzo[9]annulen-7-yl)urea], in series [1], the IC50 came to 1.2 nM. Also, the “Microsomal stability (% remanent)” value in series [2] stood at 33%.

Regarding `CC(=O)c1ccc(N2CCC(NC(=O)NC34CC5CC(C)(CC(C3)c3ccccc35)C4)CC2)cc1` [Example C12, 1-(1-(4-acetylphenyl)piperidin-4-yl)-3-(9-methyl-5,6,8,9,10,11-hexahydro-7H-5,9:7,11-dimethanobenzo[9]annulen-7-yl)urea], in series [1], the IC50 came out at 2.9 nM. Further, the “Microsomal stability (% remanent)” value in series [2] is given as 0.7%.

On to `CCC(=O)N1CCC(NC(=O)Nc2ccc(OC(F)(F)F)cc2)CC1` [TPPU, N-[1-(1-Oxopropyl)-4-piperidinyl]-N′-[4-(trifluoromethoxy)phenyl]urea, reference compound], for which, in series [3], the Average clonic seizure was determined as 3.67, the “Mean time to clonic seizure latency” value is 605.33 s and the “Protected from tonic/total (Mortality)” value is given as 5/6****.
